Measured values as given in patent publication US12533390B2, “Methods and compositions for treatment of Endothelin B receptor expressing tumors” (ENB Therapeutics, Inc., priority 2015, dated 2026).
“Also recorded” adds a separate entry of the source.

Experiments:
[1] = system: SKMEL28 human melanoma cells; test: SKMEL28 human melanoma xenograft in mice, tumor weight and lung metastases; type: in vivo
Description: BQ788 inhibits melanoma growth and metastasis (FIGS. 4A and 4B). […] Mice were implanted with 1×10^6 SKMEL28 human melanoma cells. Tumors were established for 10 days until palpable then 120 ng ([…]) BQ788 dissolved in DMSO was injected IP 3× per week x 6 weeks. Mice were then sacrificed and lungs harvested and tumors weighed. A 75% reduction in tumor weight was observed.

[2] = Body weight of athymic nude mice under intranasal BQ788 over 42 days; type: in vivo
Description: FIG. 9. ETAR antagonist and Niacinamide mitigate weight loss from BQ788. Six week old athymic nude mice were administered the ETBR antagonist BQ788 intranasally in 20% DMSO at the indicated ascending doses over a period of 42 days. One group was additionally administered the ETAR antagonist Macitentan orally at a dose of 5 mg/kg daily. The drinking water of these mice was supplemented with the B vitamin niacinamide at a concentration of 0.3 mg/mL. […] Animals thus treated were able to maintain body weight throughout the study. Co-administration of ETAR antagonists and niacinamide with ETBR antagonists mitigated the adverse effects of ETBR antagonists when administered for therapeutic purposes.
ETAR antagonist and Niacinamide mitigate weight loss from BQ788 ([…]). Six week old athymic nude mice (n=3 per group) were administered the ETBR antagonist BQ788 intranasally in 20% DMSO at the indicated ascending doses over a period of 42 days. One group was additionally administered the ETAR antagonist Macitentan orally at a dose of 5 mg/kg daily. The drinking water of these mice was supplemented with the B vitamin niacinamide at a concentration of 0.3 mg/mL. […] Animals thus treated were able to maintain body weight throughout the study. […]

ETBR = target: T1, ETBR (Homo sapiens, UniProt P24530); conditions: ETBR antagonist, no method given, cited from earlier work
T1 sequence (P24530 27-442): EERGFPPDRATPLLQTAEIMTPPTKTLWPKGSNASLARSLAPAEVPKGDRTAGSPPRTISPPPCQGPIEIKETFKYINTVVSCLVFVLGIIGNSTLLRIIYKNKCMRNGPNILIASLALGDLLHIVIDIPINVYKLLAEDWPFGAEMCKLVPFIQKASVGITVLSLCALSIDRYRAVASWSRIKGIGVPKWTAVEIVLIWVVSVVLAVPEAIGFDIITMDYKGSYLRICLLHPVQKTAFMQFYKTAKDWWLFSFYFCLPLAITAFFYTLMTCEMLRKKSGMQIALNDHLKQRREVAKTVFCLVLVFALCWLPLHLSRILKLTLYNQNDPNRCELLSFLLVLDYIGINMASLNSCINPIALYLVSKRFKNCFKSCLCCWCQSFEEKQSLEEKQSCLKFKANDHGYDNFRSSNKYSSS

[3] = system: melanoma cell lines overexpressing ETBR; test: Mouse melanoma brain metastasis model, xenografts of ETBR-overexpressing melanoma cell lines; type: in vivo, mice; conditions: A192621 60 mg/kg/day
Description: FIGS. 5A, 5B, 5C, 5D, and 5E. ETBR antagonist inhibits melanoma brain metastasis in mice. […] In this study, lentiviral vectors were used to overexpress ETBR in melanoma cell lines, which were in turn used to implant xenografts in mice.
A192621 inhibits melanoma brain metastasis in mice (FIGS. 5A, 5B, 5C, 5D, and 5E). […] A192621 was administered at a dose of 60 mg/kg/day using a mouse melanoma model. […] In this study, lentiviral vectors were used to overexpress ETBR in melanoma cell lines, which were in turn used to implant xenografts in mice. […]

[4] = system: A375 human melanoma cells; test: Subcutaneous A375 human melanoma xenograft in Nu/J nude mice; type: in vivo; conditions: Dabrafenib 100 mg/Kg PO daily, alone or with BQ788 600 ng IP TIW; A375 tumors 150-200 mm3 at start
Description: FIG. 7. BQ788 synergizes with Dabrafenib in vivo. A375 human melanoma cells were implanted subcutaneously into the rear flank of Nu/J nude mice and allowed to grow to 150 mm3-200 mm3 prior to randomization and initiation of treatment. The mice received the following treatments: (1) vehicle (n=8), (2) Dabrafenib 100 mg/Kg PO daily (n=5), and (3) Dabrafenib+BQ788 600 ng IP TIW (n=5).
BQ788 synergizes with a bRAF inhibitor in vivo (FIG. 7). A375 human melanoma cells (3×10^6) were implanted subcutaneously into the rear flank of Nu/J nude mice and allowed to grow to 150 mm3-200 mm3 prior to randomization and initiation of treatment. The treatment groups were as follows: (1) vehicle (n=8), Dabrafenib 100 mg/Kg PO daily (n=5), (2) Dabrafenib+BQ788 600 ng IP 3 x per week (n=5).

## CCCC[C@@H](NC(=O)[C@@H](Cc1cn(C(=O)OC)c2ccccc12)NC(=O)[C@H](CC(C)(C)C)NC(=O)N1[C@H](C)CCC[C@@H]1C)C(=O)[O][Na+] [BQ788]
[1]; 120 ng (~60 μg/kg) BQ788 in DMSO IP 3x per week x 6 weeks, SKMEL28 tumors in mice
  reduction in tumor weight: 75%
[1]; 120 ng BQ788 IP 3x per week x 6 weeks, lung specimens vs control mice
  clearance of lung metastases: > 95%
[2]; BQ788 alone intranasally in 20% DMSO, ascending doses, end of 42 day study
  average weight loss relative to baseline body weight: 5%
[2]; BQ788 intranasally, ascending doses over 42 days, with or without Macitentan 5 mg/kg orally daily and niacinamide 0.3 mg/mL in drinking water
  effect on body weight / thriving: failed to thrive
ETBR; for BQ788 printed as inhibitor of ETBR-related melanoma cell growth
  IC50: 1.2 nM
ETBR
  Ki: 17.8 nM

## CCCOc1ccc([C@H]2[C@H](C(=O)O)[C@@H](c3ccc4c(c3)OCO4)CN2CC(=O)Nc2c(CC)cccc2CC)cc1 [A192621, (2R,3R,4S)-4-(1,3-benzodioxol-5-yl)-1-[2-(2,6-diethylanilino)-2-oxoethyl]-2-(4-propoxyphenyl) pyrrolidine-3-carboxylic acid]
[3]
  CNS melanoma tumors: shrinks CNS melanoma tumors
  brain melanoma metastases: shrinks brain melanoma metastases
  survival: increases survival

## CC(C)(C)c1nc(-c2cccc(NS(=O)(=O)c3c(F)cccc3F)c2F)c(-c2ccnc(N)n2)s1 [Dabrafenib]
[4]
  tumor growth: retarded the growth of tumors; also recorded: retarded tumor growth
